Patent publication US12410194B2, “Potent and selective azaindole inhibitors of CDK8 and CDK19” (priority 2019, dated 2025)

These compounds were tested against CDK8/cyclin C (Homo sapiens (Human), UniProt P49336) (assay: LanthaScreen Eu Kinase Binding Assay for CDK8/cyclin C). Settings: 10-point curve, 4-fold dilution series, 60 min at room temperature.
Chain of CDK8/cyclin C (P49336 whole entry, looked up): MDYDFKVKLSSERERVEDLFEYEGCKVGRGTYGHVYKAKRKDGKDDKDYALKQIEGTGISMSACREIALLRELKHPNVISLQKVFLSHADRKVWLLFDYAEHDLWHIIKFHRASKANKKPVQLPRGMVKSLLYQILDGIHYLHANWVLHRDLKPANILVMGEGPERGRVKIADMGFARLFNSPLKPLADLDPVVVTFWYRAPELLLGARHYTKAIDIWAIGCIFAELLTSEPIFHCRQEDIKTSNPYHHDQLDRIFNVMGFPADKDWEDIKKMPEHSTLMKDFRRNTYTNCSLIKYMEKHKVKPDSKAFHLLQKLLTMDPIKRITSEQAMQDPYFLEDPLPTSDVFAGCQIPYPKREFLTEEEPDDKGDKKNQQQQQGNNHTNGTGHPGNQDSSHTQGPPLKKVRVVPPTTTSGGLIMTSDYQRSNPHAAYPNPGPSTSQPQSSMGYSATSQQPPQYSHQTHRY
Chain of CDK8/cyclin C (P24863 whole entry partner, looked up): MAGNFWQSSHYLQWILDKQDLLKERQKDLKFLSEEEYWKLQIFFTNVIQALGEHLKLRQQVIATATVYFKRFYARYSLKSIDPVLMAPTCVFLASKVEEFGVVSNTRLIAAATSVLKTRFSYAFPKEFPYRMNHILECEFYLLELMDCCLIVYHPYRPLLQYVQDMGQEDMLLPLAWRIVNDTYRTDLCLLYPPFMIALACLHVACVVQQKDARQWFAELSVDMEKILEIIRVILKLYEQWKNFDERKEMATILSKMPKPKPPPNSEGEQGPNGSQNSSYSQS
Cn1cnc2cc(-c3cnc4[nH]ccc4c3N3CCC4(CCNC4=O)CC3)ccc21 [Compound 005, 8-(5-(1-methyl-1H-benzo[d]imidazol-5-yl)-1H-pyrrolo[2,3-b]pyridin-4-yl)-2,8-diazaspiro[4.5]decan-1-one] gave an IC50 of 32.2 nM. Cn1ncc2cc(-c3cnc4[nH]ccc4c3N3CCC4(CCCNC4=O)CC3)ccc21 [Compound 006, 9-(5-(1-methyl-1H-indazol-5-yl)-1H-pyrrolo[2,3-b]pyridin-4-yl)-2,9-diazaspiro[5.5]undecan-1-one] was tested, and the IC50 was 3 nM. Compound Cc1n[nH]c2ncc(-c3ccc4c(cnn4C)c3)c(N3CCC4(CCNC4=O)CC3)c12 [Compound 021] has an IC50 of 36 nM. Cn1ncc2cc(-c3cnc4[nH]nc(Cl)c4c3N3CCC4(CCNC4=O)CC3)ccc21 [Compound 020] gave an IC50 of 1.37 nM. O=C1NCCC12CCN(c1c(-c3ccc4ncnn4c3)cnc3[nH]ccc13)CC2 [Compound 007, 8-(5-([1,2,4]triazolo[1,5-a]pyridin-6-yl)-1H-pyrrolo[2,3-b]pyridin-4-yl)-2,8-diazaspiro[4.5]decan-1-one] showed an IC50 of 274 nM. Cn1ncc2cc(-c3cnc4[nH]cc(Cl)c4c3N3CCC4(CCNC4=O)CC3)ccc21 [Compound 018, 8-(3-chloro-5-(1-methyl-1H-indazol-5-yl)-1H-pyrrolo[2,3-b]pyridin-4-yl)-2,8-diazaspiro[4.5]decan-1-one] was tested, and the IC50 was 1.73 nM. O=C1NCCC12CCN(c1c(-c3ccc4ncsc4c3)cnc3[nH]ccc13)CC2 [Compound 004, 8-(5-(benzo[d]thiazol-6-yl)-1H-pyrrolo[2,3-b]pyridin-4-yl)-2,8-diazaspiro[4.5]decan-1-one] was tested, and the IC50 was 24.5 nM. Cn1ncc2cc(-c3cnc4[nH]ccc4c3N3CCC4(CC3)CNC4=O)ccc21 [Compound 010, 7-(5-(1-methyl-1H-indazol-5-yl)-1H-pyrrolo[2,3-b]pyridin-4-yl)-2,7-diazaspiro[3.5]nonan-1-one] gave an IC50 of 6.3 nM. Cn1ncc2cc(-c3cnc4[nH]ccc4c3N3CCC4(CC3)NC(=O)NC4=O)ccc21 [Compound 014, 8-(5-(1-methyl-1H-indazol-5-yl)-1H-pyrrolo[2,3-b]pyridin-4-yl)-1,3,8-triazaspiro[4.5]decane-2,4-dione] was tested, and the IC50 was 3 nM. O=C1NCCC12CCN(c1c(-c3ccn4ccnc4c3)cnc3[nH]ccc13)CC2 [Compound 009, 8-(5-(imidazo[1,2-a]pyridin-7-yl)-1H-pyrrolo[2,3-b]pyridin-4-yl)-2,8-diazaspiro[4.5]decan-1-one] showed an IC50 of 76.4 nM. With Cn1ncc2cc(-c3cnc4sccc4c3N3CCC4(CCNC4=O)CC3)ccc21 [Compound 019, 8-(5-(1-methyl-1H-indazol-5-yl)thieno[2,3-b]pyridin-4-yl)-2,8-diazaspiro[4.5]decan-1-one] the IC50 was 206 nM. Compound Cn1ncc2cc(-c3cnc4[nH]ccc4c3N3CCC4(CC3)CNC(=O)O4)ccc21 [Compound 011, 8-(5-(1-methyl-1H-indazol-5-yl)-1H-pyrrolo[2,3-b]pyridin-4-yl)-1-oxa-3,8-diazaspiro[4.5]decan-2-one] has an IC50 of 7 nM. Cn1ncc2cc(-c3cnc4[nH]cnc4c3N3CCC4(CCNC4=O)CC3)ccc21 [Compound 016, 8-(6-(1-methyl-1H-indazol-5-yl)-3H-imidazo[4,5-b]pyridin-7-yl)-2,8-diazaspiro[4.5]decan-1-one] showed an IC50 of 10 nM. Cn1ncc2cc(-c3cnc4[nH]ccc4c3N3CCC4(CCNC4=O)C3)ccc21 (stereo not shown) [Compound 017, 7-(5-(1-methyl-1H-indazol-5-yl)-1H-pyrrolo[2,3-b]pyridin-4-yl)-2,7-diazaspiro[4.4]nonan-1-one] gave an IC50 of 55 nM. Work on O=C1NCCC12CCN(c1c(-c3ccc4scnc4c3)cnc3[nH]ccc13)CC2 [Compound 002, 8-(5-(benzo[d]thiazol-5-yl)-1H-pyrrolo[2,3-b]pyridin-4-yl)-2,8-diazaspiro[4.5]decan-1-one] yielded an IC50 of 6.46 nM. O=C1NCCC12CCN(c1c(-c3ccc4[nH]cnc4c3)cnc3[nH]ccc13)CC2 [Compound 008, 8-(5-(1H-benzo[d]imidazol-5-yl)-1H-pyrrolo[2,3-b]pyridin-4-yl)-2,8-diazaspiro[4.5]decan-1-one] showed an IC50 of 4.97 nM.
